Assay results as given in patent publication US10858367B2, “Compounds” (GLAXOSMITHKLINE INTELLECTUAL PROPERTY DEVELOPMENT LIMITED, priority 2017, dated 2020).
Several values for one entry are separate records, joined by “and”; a condition that tells them apart may be missing. Equal entries are not always repeated.

Target: T1, LRRK2 Ser935 phosphorylation in SH-SY5Y cells over-expressing recombinant full length LRRK2 (Homo sapiens, UniProt Q5S007)
T1 construct: A BacMam virus expressing full length recombinant LRRK2 was purchased from Invitrogen; host or cells: SH-SY5Y human neuroblastoma cells transduced with BacMam LRRK2 virus
Assay: Recombinant cellular LRRK2 AlphaScreen assay
Format: cell-based
Conditions: human neuroblastoma SH-SY5Y cells, BacMam full length LRRK2, 60 minutes with compound, read-out: pIC50 in the recombinant cellular LRRK2 AlphaScreen assay (converted)
Description: b. Recombinant Cellular LRRK2 AlphaScreen Assay
To determine the activity of compounds against LRRK2 kinase activity in cells, the observed LRRK2 kinase-dependent modulation of LRRK2 Ser 935 phosphorylation (Dzamko et al., 2010, Biochem. J. 430: 405-413) was utilized to develop a quantitative 384 well plate-based immunoassay of LRRK2 Ser935 phosphorylation in the human neuroblastoma cell line SH-SY5Y, engineered to over-express recombinant full length LRRK2 protein.
A BacMam virus expressing full length recombinant LRRK2 was purchased from Invitrogen and amplified by inoculation of SF-9 cells at MOI 0.3 for 4-5 days in Sf-900 III SFM medium supplemented with 3% fetal bovine serum. Infected cell cultures were then centrifuged at 2000 g for 20 minutes, viral supernatant titer determined by anti-gp64 plaque assay and stored at 4° C.
Affinity-purified anti-phospho LRRK2 Ser935 sheep polyclonal antibody (Dzamko et al., 2010, Biochem. J. 430: 405-413) was biotinylated by standard methods (PerkinElmer). Anti-LRRK2 rabbit polyclonal antibody was purchased from Novus Biologicals. AlphaScreen Protein A IgG Kit (including acceptor and donor beads) was purchased from Perkin Elmer.
SH-SY5Y cells were grown in DMEM/F12 medium with 10% dialysed fetal bovine serum and harvested by treatment with 0.5% trypsin-EDTA for 5 minutes at 37° C. followed by centrifugation at 1000 rpm for 4 minutes. The cell pellet was resuspended in Opti-MEM reduced serum media (Invitrogen) at 200,000 cells/ml and mixed with the BacMam LRRK2 virus at MOI=50. 50 μl cell solutions were then dispensed to each well of a 384-well plate and incubated at 37° C., 5% CO2 for 24 hours.
Serial dilutions of test compounds were prepared in Opti-MEM reduced serum media (Invitrogen) and 5.6 ul transferred from compound plate to cell assay plate to achieve a top final assay concentration of 10 uM. DMSO was used in certain wells as controls. Cells were incubated at 37° C., 5% CO2 for 60 minutes. The medium was then removed and cells lysed by addition of 20 ul cell lysis buffer (Cell Signaling Technology) and incubation at 4° C. for 20 minutes. 10 ul of antibody/acceptor bead mix [(1/1000 biotinylated-pS935 LRRK2 antibody, 1/1000 total-LRRK2 antibody, 1/100 Acceptor beads in AlphaScreen detection buffer (25 mM Hepes (pH 7.4), 0.5% Triton X-100, 1 mg/ml Dextran 500 and 0.1% BSA)] was then added to each well and plates incubated for 2 hours at ambient temperature in the dark. 10 μl of donor beads solution (1/33.3 donor beads in AlphaScreen detection buffer) was then added to each well. Following incubation for a further 2 hours at ambient temperature in the dark, plates were read on an EnVision™ plate reader at emission 520-620 nm with excitation 680 nm. Dose response curve data was based on sigmoidal dose-response model.

T1 sequence (Q5S007 whole entry): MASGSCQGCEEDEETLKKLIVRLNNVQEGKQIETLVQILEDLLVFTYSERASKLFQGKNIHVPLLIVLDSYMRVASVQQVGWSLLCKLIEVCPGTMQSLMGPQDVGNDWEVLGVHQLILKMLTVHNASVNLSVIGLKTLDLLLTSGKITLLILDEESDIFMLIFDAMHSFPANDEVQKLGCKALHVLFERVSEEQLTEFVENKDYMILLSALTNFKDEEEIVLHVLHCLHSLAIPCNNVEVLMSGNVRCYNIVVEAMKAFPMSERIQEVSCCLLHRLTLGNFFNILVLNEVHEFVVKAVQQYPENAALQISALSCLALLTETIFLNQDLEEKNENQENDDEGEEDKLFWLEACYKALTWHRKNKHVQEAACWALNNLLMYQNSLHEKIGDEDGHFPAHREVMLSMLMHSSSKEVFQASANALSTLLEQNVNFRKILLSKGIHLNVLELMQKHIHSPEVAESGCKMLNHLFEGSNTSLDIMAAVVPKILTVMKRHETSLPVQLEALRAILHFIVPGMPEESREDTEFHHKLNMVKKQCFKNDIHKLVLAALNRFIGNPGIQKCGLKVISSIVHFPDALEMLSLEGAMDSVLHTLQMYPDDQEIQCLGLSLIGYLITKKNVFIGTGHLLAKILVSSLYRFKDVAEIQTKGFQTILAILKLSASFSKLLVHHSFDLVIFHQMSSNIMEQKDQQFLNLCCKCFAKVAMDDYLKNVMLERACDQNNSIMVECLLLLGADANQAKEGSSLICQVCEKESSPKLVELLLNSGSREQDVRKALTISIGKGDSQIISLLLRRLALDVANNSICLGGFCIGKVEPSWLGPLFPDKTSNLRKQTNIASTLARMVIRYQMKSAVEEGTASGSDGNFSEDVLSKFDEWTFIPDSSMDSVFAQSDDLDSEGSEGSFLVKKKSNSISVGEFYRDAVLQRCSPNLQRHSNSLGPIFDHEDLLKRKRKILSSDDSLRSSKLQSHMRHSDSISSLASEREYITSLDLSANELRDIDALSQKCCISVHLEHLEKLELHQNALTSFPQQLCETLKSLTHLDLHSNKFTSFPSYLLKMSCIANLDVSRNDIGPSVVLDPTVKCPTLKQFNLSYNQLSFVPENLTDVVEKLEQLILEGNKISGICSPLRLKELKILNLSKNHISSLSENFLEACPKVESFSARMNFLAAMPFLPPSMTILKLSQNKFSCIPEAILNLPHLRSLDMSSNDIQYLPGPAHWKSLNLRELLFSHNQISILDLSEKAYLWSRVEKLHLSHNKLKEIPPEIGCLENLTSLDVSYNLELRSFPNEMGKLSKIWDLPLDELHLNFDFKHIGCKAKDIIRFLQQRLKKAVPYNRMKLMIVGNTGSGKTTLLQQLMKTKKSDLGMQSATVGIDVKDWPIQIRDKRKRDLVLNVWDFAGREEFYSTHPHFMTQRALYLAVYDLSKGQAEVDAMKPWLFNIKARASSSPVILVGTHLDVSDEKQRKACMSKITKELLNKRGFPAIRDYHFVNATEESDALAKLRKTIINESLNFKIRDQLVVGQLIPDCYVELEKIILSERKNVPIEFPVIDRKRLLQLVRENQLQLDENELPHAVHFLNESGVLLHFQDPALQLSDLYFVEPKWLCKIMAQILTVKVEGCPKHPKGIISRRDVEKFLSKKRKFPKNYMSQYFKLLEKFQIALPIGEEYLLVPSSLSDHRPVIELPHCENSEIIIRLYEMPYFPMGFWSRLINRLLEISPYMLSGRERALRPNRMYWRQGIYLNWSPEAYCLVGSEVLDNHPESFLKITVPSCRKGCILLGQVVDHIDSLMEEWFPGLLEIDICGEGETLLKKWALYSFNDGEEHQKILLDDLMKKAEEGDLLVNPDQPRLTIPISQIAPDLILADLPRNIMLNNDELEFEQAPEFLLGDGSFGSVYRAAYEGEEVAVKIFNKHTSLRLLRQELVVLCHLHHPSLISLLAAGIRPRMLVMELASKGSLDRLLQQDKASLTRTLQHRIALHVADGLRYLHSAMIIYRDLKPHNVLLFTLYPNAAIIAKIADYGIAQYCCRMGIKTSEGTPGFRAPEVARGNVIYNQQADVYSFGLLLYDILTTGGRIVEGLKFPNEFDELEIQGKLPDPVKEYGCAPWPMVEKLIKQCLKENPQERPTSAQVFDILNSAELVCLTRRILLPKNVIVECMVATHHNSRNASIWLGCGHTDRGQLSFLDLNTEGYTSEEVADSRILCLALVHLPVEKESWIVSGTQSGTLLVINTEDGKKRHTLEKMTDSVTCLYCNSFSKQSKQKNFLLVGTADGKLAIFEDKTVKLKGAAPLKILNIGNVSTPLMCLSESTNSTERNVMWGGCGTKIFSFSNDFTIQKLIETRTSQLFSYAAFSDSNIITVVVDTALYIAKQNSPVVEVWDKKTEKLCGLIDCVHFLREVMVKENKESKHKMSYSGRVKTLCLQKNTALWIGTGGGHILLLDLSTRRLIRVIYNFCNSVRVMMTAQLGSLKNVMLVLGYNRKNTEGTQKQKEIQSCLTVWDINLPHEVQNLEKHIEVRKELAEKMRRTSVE

| Structure (SMILES) | IC50 |
| --- | --- |
| Cc1nc(N2C[C@@H]3C[C@H]2CO3)cc(-n2ncc3cc(C)c(C4CCN(CCC(=O)O)CC4F)cc32)n1 (single isomer, unassigned) [Example E157] | ≤ 1 µM |
| Cc1nc(N2C[C@@]3(CO)C[C@@H]2CO3)cc(-n2ncc3cc(C)c(C4CCOCC4O)cc32)n1 (single isomer, unassigned) [Example E168, 4-(1-(6-(1-(hydroxymethyl)-2-oxa-5-azabicyclo[2.2.1]heptan-5-yl)-2-methylpyrimidin-4-yl)-5-methyl-1H-indazol-6-yl)tetrahydro-2H-pyran-3-ol] | ≤ 1 µM |
| COc1nc(N2C[C@H]3C[C@@H]2CO3)cc(-n2ncc3ccc(OC4(C)CC4)cc32)n1 [Example E3, (1R,4R)-5-(2-methoxy-6-(6-(1-methylcyclopropoxy)-1H-indazol-1-yl)pyrimidin-4-yl)-2-oxa-5-azabicyclo[2.2.1]heptane] | ≤ 1 µM |
| COc1nc(N2C[C@@H]3C[C@H]2CO3)cc(-n2ncc3ccc(OC4(C)CC4)cc32)n1 [Example E4, (1S,4S)-5-(2-methoxy-6-(6-(1-methylcyclopropoxy)-1H-indazol-1-yl)pyrimidin-4-yl)-2-oxa-5-azabicyclo[2.2.1]heptane] | ≤ 1 µM |
| Cc1nc(N2C[C@@H]3C[C@H]2CO3)cc(-n2ncc3cc(C)c([C@H]4CC[C@@](C)(O)CC4)cc32)n1 [Example E7, Cis-4-(1-(6-((1S,4S)-2-oxa-5-azabicyclo[2.2.1]heptan-5-yl)-2-methylpyrimidin-4-yl)-5-methyl-1H-indazol-6-yl)-1-methylcyclohexanol] | ≤ 1 µM |
| Cc1nc(N2C[C@@H]3C[C@H]2CO3)cc(-n2ncc3cc(C)c([C@H]4CC[C@](C)(O)CC4)cc32)n1 [Example E8, Trans-4-(1-(6-((1S,4S)-2-oxa-5-azabicyclo[2.2.1]heptan-5-yl)-2-methylpyrimidin-4-yl)-5-methyl-1H-indazol-6-yl)-1-methylcyclohexanol] | ≤ 1 µM |
| Cc1nc(N2C[C@H]3C[C@@H]2CN3C2COC2)cc(-n2ncc3cc(C)c([C@H]4CC[C@@](C)(O)CC4)cc32)n1 [Example E29, Cis-1-methyl-4-(5-methyl-1-(2-methyl-6-((1R,4R)-5-(oxetan-3-yl)-2,5-diazabicyclo[2.2.1]heptan-2-yl)pyrimidin-4-yl)-1H-indazol-6-yl)cyclohexanol] | ≤ 1 µM |
| Cc1nc(N2CC3CC2CN3C2COC2)cc(-n2ncc3cc(C)c([C@H]4CC[C@@](C)(O)CC4)cc32)n1 (stereo partly drawn) [Example E30, Cis-1-methyl-4-(5-methyl-1-(2-methyl-6-((1S,4S)-5-(oxetan-3-yl)-2,5-diazabicyclo[2.2.1]heptan-2-yl)pyrimidin-4-yl)-1H-indazol-6-yl)cyclohexanol] | ≤ 1 µM |
| Cc1nc(N2C[C@H]3C[C@@H]2CN3C2COC2)cc(-n2ncc3cc(C)c([C@H]4CC[C@](C)(O)CC4)cc32)n1 [Example E31, Trans-1-methyl-4-(5-methyl-1-(2-methyl-6-((1R,4R)-5-(oxetan-3-yl)-2,5-diazabicyclo[2.2.1]heptan-2-yl)pyrimidin-4-yl)-1H-indazol-6-yl)cyclohexanol] | 1.07 µM |
| Cc1nc(N2C[C@@H]3C[C@H]2CN3C2COC2)cc(-n2ncc3cc(C)c([C@H]4CC[C@](C)(O)CC4)cc32)n1 [Example E32, Trans-1-methyl-4-(5-methyl-1-(2-methyl-6-((1S,4S)-5-(oxetan-3-yl)-2,5-diazabicyclo[2.2.1]heptan-2-yl)pyrimidin-4-yl)-1H-indazol-6-yl)cyclohexanol] | 1.86 µM |
| Cc1nc(N2C[C@@H]3C[C@H]2CO3)cc(-n2ncc3cc(Cl)c(N4CCC(C)(O)CC4)cc32)n1 [Example E33, 1-(1-(6-((1S,4S)-2-oxa-5-azabicyclo[2.2.1]heptan-5-yl)-2-methylpyrimidin-4-yl)-5-chloro-1H-indazol-6-yl)-4-methylpiperidin-4-ol] | ≤ 1 µM |
| Cc1nc(N2C[C@H]3C[C@@H]2CO3)cc(-n2ncc3cc(Cl)c(N4CCC(C)(O)CC4)cc32)n1 [Example E34, 1-(1-(6-((1R,4R)-2-oxa-5-azabicyclo[2.2.1]heptan-5-yl)-2-methylpyrimidin-4-yl)-5-chloro-1H-indazol-6-yl)-4-methylpiperidin-4-ol] | ≤ 1 µM |

Continued, values first:

| IC50 | Structure (SMILES) |
| --- | --- |
| ≤ 1 µM | COc1nc(N2C[C@@H]3C[C@H]2CO3)cc(-n2ncc3cc(C)c(C4CCN(CCC(=O)O)CC4F)cc32)n1 (single isomer, unassigned) [Example E161] |
| ≤ 1 µM | Cc1nc(N2C[C@H]3C[C@@H]2CO3)cc(-n2ncc3cc(C)c(C4CCN(C5COCC5O)CC4)cc32)n1 (single isomer, unassigned) [Example E172] |
| ≤ 1 µM and 0.02 µM | COc1nc(N2C[C@H]3C[C@@H]2CO3)cc(-n2ncc3cc(C)c(C4CCN(C5COC5)CC4)cc32)n1 [Example E1, (1R,4R)-5-(2-methoxy-6-(5-methyl-6-(1-(oxetan-3-yl)piperidin-4-yl)-1H-indazol-1-yl)pyrimidin-4-yl)-2-oxa-5-azabicyclo[2.2.1]heptane] |
| ≤ 1 µM | COc1nc(N2C[C@@H]3C[C@H]2CO3)cc(-n2ncc3cc(C)c(C4CCN(C5COC5)CC4)cc32)n1 [Example E2, (1S,4S)-5-(2-methoxy-6-(5-methyl-6-(1-(oxetan-3-yl)piperidin-4-yl)-1H-indazol-1-yl)pyrimidin-4-yl)-2-oxa-5-azabicyclo[2.2.1]heptane] |
| ≤ 0.01 µM | COc1nc(N2C[C@H]3C[C@@H]2CO3)cc(-n2ncc3cc(Cl)c(C4CCN(C5COC5)CC4)cc32)n1 [Example E5, (1R,4R)-5-(6-(5-chloro-6-(1-(oxetan-3-yl)piperidin-4-yl)-1H-indazol-1-yl)-2-methoxypyrimidin-4-yl)-2-oxa-5-azabicyclo[2.2.1]heptane] |
| ≤ 1 µM | COc1nc(N2C[C@@H]3C[C@H]2CO3)cc(-n2ncc3cc(Cl)c(C4CCN(C5COC5)CC4)cc32)n1 [Example E6, (1S,4S)-5-(6-(5-chloro-6-(1-(oxetan-3-yl)piperidin-4-yl)-1H-indazol-1-yl)-2-methoxypyrimidin-4-yl)-2-oxa-5-azabicyclo[2.2.1]heptane] |
| ≤ 1 µM | Cc1nc(N2C[C@H]3C[C@@H]2CO3)cc(-n2ncc3cc(Cl)c(C4CCN(C5COC5)CC4)cc32)n1 [Example E25, (1R,4R)-5-(6-(5-chloro-6-(1-(oxetan-3-yl)piperidin-4-yl)-1H-indazol-1-yl)-2-methylpyrimidin-4-yl)-2-oxa-5-azabicyclo[2.2.1]heptane] |
| ≤ 1 µM | Cc1nc(N2C[C@@H]3C[C@H]2CO3)cc(-n2ncc3cc(Cl)c(C4CCN(C5COC5)CC4)cc32)n1 [Example E26, (1S,4S)-5-(6-(5-chloro-6-(1-(oxetan-3-yl)piperidin-4-yl)-1H-indazol-1-yl)-2-methylpyrimidin-4-yl)-2-oxa-5-azabicyclo[2.2.1]heptane] |
| ≤ 1 µM | COc1nc(N2C[C@H]3C[C@@H]2CO3)cc(-n2ncc3cc(C)c(C4CCN(CCO)CC4)cc32)n1 [Example E27, 2-(4-(1-(6-((1R,4R)-2-oxa-5-azabicyclo[2.2.1]heptan-5-yl)-2-methoxypyrimidin-4-yl)-5-methyl-1H-indazol-6-yl)piperidin-1-yl)ethanol] |
| ≤ 1 µM | COc1nc(N2C[C@@H]3C[C@H]2CO3)cc(-n2ncc3cc(C)c(C4CCN(CCO)CC4)cc32)n1 [Example E28, 2-(4-(1-(6-((1S,4S)-2-oxa-5-azabicyclo[2.2.1]heptan-5-yl)-2-methoxypyrimidin-4-yl)-5-methyl-1H-indazol-6-yl)piperidin-1-yl)ethanol] |
